# Measurements published in article PMC6245477, “Discovery of a Novel CCR5 Antagonist Lead Compound Through Fragment Assembly” (Molecules, 2008).
# Tests used:
# [1] = biological target: T1, CCR5 (Homo sapiens, UniProt P51681); test: Calcium mobilization assay (RANTES-induced, Fluo-4 AM); format: cell-based; conditions: for IC50: CHO cells stably expressing CCR5 and Gα16, RANTES 30 nM, read-out: IC50 (antagonistic activity against CCR5); for effect of structural change on potency relative to compound 2: SAR statement from IC50 values
# T1 construct: expressed in transfected cells
# Experimental: For the primary assay, the percent inhibitory rates of the compounds 1, 2 and 2a-l at 1 μM were measured. Except compounds 2a and 2c, the other twelve compounds were remarkably antagonist of CCR5 activity. Therefore, we determined their IC50 values (Table 1).
# CHO cells stably expressing CCR5 and Gα16 were loaded with 2 μmol/L Fluo-4 AM in Hanks balanced salt solution (HBSS, containing KCl 5.4 mM, Na2HPO4 0.3 mM, KH2PO4 0.4 mM, NaHCO3 4.2 mM, CaCl2 1.3 mM, MgCl2 0.5 mM, Mg2SO4 0.6 mM, NaCl 137 mM, BSA 5 g/L, Glucose 5.6 mM, Sulfinpyrazone 250 μM, pH 7.4) at 37 °C for 45 minutes. After the cells being rinsed with the reaction buffer, 50 μL HBSS containing known antagonists (positive control), compounds of interest or DMSO (negative control, final concentration 1%) were added. After incubation at room temperature for 10 minutes, 25 μL RANTES (final concentration 30 nM) was dispensed into the well using a FlexStation II micro-plate reader (Molecular Devices, Sunnyvale, CA, USA) and intracellular calcium change was recorded with an excitation wavelength of 485 nm and emission wavelength of 525 nm. The half maximal inhibitory concentrations (IC50s) of compounds were determined with GraphPad Prism software by constructing their dose-response curves.
# T1 sequence (P51681 whole entry): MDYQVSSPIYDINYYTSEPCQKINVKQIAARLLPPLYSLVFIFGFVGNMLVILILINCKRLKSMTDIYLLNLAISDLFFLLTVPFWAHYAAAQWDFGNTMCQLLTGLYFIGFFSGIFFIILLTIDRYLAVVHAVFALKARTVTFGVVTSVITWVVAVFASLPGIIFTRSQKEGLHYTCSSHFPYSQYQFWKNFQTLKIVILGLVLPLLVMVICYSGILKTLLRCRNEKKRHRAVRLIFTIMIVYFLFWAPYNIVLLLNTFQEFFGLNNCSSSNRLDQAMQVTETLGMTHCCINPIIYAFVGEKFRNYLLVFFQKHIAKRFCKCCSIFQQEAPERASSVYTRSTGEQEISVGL
SMILES,IC50 [1] [nM],"fold change of IC50 compared to compound 1 ([1]; ratio of IC50 values, vs compound 1) [fold]",effect of structural change on potency relative to compound 2 [1],melting point [°C],"fold increase in potency compared with compound 2 ([1]; ratio of IC50 values, vs compound 2) [fold]"
"O=C(CCC(=O)N1CCN(c2ccnc3cc(Cl)ccc23)CC1)N1CCN(c2ccnc3cc(Cl)ccc23)CC1 [Compound 1, 1,4-bis(4-(7-chloroquinolin-4-yl)piperazin-1-yl)butane-1,4-dione]",2000,,,,
"O=C(C1CCC(F)(F)CC1)N1CCN(c2ccnc3cc(Cl)ccc23)CC1 [Compound 2l, (4-(7-chloroquinolin-4-yl)piperazin-1-yl)(4,4-difluorocyclohexyl)methanone]",> 1000,,nearly leads to a loss of potency,,
"O=C(N[C@@H](CCN1CCN(c2ccnc3cc(Cl)ccc23)CC1)c1ccccc1)C1CCCCC1 [Compound 2b, N-((S)-3-(4-(7-Chloroquinolin-4-yl)piperazin-1-yl)-1-phenylpropyl)cyclohexanecarboxamide]",2660,,,153 to 158,
"O=C(N[C@@H](CCN1CCN(c2ccc3ccccc3n2)CC1)c1ccccc1)C1CCC(F)(F)CC1 [Compound 2j, N-((S)-3-(4-(Quinolin-2-yl)piperazin-1-yl)-1-phenylpropyl)-4,4-difluorocyclohexanecarboxamide]",233,,,50 to 53,3
"Cc1ccc(S(=O)(=O)N[C@@H](CCN2CCN(c3ccnc4cc(Cl)ccc34)CC2)c2ccccc2)cc1 [Compound 2f, N-((S)-3-(4-(7-Chloroquinolin-4-yl)piperazin-1-yl)-1-phenylpropyl)-4-methylbenzenesulfonamide]",> 10000,,decrease or loss of potency,132 to 136,
"O=C(N[C@@H](CCN1CCN(c2ccnc3cc(Cl)ccc23)CC1)c1ccccc1)c1ccc(F)cc1 [Compound 2a, N-((S)-3-(4-(7-Chloroquinolin-4-yl)piperazin-1-yl)-1-phenylpropyl)-4-fluorobenzamide]",,,,77 to 79,
"O=C(N[C@@H](CCN1CCN(c2ncnc3[nH]cnc23)CC1)c1ccccc1)C1CCC(F)(F)CC1 [Compound 2h, N-((S)-3-(4-(9H-Purin-6-yl)piperazin-1-yl)-1-phenylpropyl)-4,4-difluorocyclohexanecarboxamide]",> 10000,,,,
"O=C(Cc1ccccc1)N[C@@H](CCN1CCN(c2ccnc3cc(Cl)ccc23)CC1)c1ccccc1 [Compound 2e, N-((S)-3-(4-(7-Chloroquinolin-4-yl)piperazin-1-yl)-1-phenylpropyl)-2-phenylacetamide]",> 10000,,,69 to 72,
"O=C1CCC(C(=O)N[C@@H](CCN2CCN(c3ccnc4cc(Cl)ccc34)CC2)c2ccccc2)CC1 [Compound 2d, N-((S)-3-(4-(7-Chloroquinolin-4-yl)piperazin-1-yl)-1-phenylpropyl)-4-oxocyclohexanecarboxamide]",> 1000,,,56 to 59,

# Second part, the compound after the results:
IC50 [1] [nM],"fold change of IC50 compared to compound 1 ([1]; ratio of IC50 values, vs compound 1) [fold]",effect of structural change on potency relative to compound 2 [1],melting point [°C],"fold increase in potency compared with compound 2 ([1]; ratio of IC50 values, vs compound 2) [fold]",SMILES
692,3,,,,"O=C(N[C@@H](CCN1CCN(c2ccnc3cc(Cl)ccc23)CC1)c1ccccc1)C1CCC(F)(F)CC1 [Compound 2, N-((S)-3-(4-(7-Chloroquinolin-4-yl)piperazin-1-yl)-1-phenylpropyl)-4,4-difluorocyclohexanecarbox-amide]"
> 1000,,,,,"O=C(N[C@@H](CCN1CCN(c2ncccn2)CC1)c1ccccc1)C1CCC(F)(F)CC1 [Compound 2g, N-((S)-3-(4-(Pyrimidin-2-yl)piperazin-1-yl)-1-phenylpropyl)-4,4-difluorocyclohexanecarboxamide]"
669,,no effect on potency,,,"O=C(NC(CCN1CCN(c2ccnc3cc(Cl)ccc23)CC1)c1ccccc1)C1CCC(F)(F)CC1 (centres unmarked) [Compound 2k, N-(3-(4-(7-Chloroquinolin-4-yl)piperazin-1-yl)-1-phenylpropyl)-4,4-difluorocyclohexanecarboxamide]"
> 10000,,,,,"O=C(N[C@@H](CCN1CCN(c2ccncc2)CC1)c1ccccc1)C1CCC(F)(F)CC1 [Compound 2i, N-((S)-3-(4-(pyridin-4-yl)piperazin-1-yl)-1-phenylpropyl)-4,4-difluorocyclohexanecarboxamide]"
